Numbered stars: 1 amine (or outer) side, 2 acyl side, 3 side chain; on linkers, the order of the positions; unused ones are H or OH. Square brackets hold non-standard residues; d marks the D form. Ends that are not written are not given here. Peptide text beside a SMILES is read from it. γGlu = O=C(O)[C@H](CCC(=O)[*:2])N[*:1]; Tle = CC(C)(C)[C@H](N)C(=O)O; Abu = CC[C@H](N)C(=O)O
Legend:
human CaSR = biological target: T1, human CaSR (Homo sapiens, UniProt P41180); test: Calcium receptor (CaSR) activation activity: calcium imaging in HEK 293 cells expressing human CaSR; type: cell-based; conditions: concentration giving 50% of the maximal activity; single values n = 1, others n = 2 or 3
T1 construct: expressed in transfected cells; host or cells: HEK 293 cells, transient transfection of a CMV-promoter expression vector
T1 sequence (P41180 20-1078): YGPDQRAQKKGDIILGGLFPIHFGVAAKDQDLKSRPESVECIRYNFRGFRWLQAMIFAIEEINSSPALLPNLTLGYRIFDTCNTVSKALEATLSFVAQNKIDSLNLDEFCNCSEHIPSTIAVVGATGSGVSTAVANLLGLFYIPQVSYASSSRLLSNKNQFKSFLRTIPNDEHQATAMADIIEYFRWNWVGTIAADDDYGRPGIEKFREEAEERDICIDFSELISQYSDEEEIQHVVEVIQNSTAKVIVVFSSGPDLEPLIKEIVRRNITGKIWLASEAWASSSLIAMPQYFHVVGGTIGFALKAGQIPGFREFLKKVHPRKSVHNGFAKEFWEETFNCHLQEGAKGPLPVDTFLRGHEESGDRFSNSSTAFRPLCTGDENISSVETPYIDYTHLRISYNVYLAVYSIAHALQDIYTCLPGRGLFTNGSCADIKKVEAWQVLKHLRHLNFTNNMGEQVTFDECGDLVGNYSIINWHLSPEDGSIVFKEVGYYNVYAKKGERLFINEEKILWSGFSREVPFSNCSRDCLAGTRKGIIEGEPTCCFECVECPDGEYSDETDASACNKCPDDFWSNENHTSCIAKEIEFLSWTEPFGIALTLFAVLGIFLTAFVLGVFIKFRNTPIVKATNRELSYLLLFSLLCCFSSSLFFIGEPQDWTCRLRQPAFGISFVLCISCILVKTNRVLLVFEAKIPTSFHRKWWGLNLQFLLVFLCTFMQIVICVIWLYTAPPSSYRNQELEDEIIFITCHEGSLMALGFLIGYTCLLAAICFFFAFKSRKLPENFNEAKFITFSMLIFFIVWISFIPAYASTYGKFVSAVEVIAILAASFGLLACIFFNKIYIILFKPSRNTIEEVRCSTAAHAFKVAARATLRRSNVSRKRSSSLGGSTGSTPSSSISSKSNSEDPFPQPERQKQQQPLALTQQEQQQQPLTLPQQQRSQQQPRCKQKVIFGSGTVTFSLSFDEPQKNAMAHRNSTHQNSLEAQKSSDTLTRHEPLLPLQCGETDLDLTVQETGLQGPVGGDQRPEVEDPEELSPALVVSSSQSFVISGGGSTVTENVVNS
Protocol: Calcium receptor (CaSR) activation activity of peptides obtained in Examples 2, 3, and 5-12 were measured as follows. A cDNA of human CaSR obtained in Example 1 of WO2007/055393A1 was inserted into an expression vector for an animal cell having a CMV promoter, and the cDNA in the vector was introduced into HEK 293 cells, which had multiplied to 70% of the maximal cell density, using FuGINE6 (Roche Ltd.). After culturing the cells for 4 to 48 hours, 0.6-1.0×10^5 of cells/well were disseminated into a 96-well plate, subsequently, the cells were cultured for one day, and then stained using Calcium 3 Assay Kit. The presence or absence of a calcium receptor activation activity of each peptide was confirmed by a calcium imaging method using FLEXSTATION (Molecular Devices Inc., instruction manual). Furthermore, the concentration of each peptide giving 50% of the maximal activity (EC50) was calculated using a dose characteristic curve.

[1] = Quantitative sensory evaluation test of kokumi-imparting activity in water with sodium glutamate, inosine monophosphate and sodium chloride; type: in vivo, human; conditions: control 0, glutathione 3 points
Protocol: Sample solutions that became acidic after dissolution of the samples were adjusted to pH 6.8 to 7.2 with NaOH before use. Sensory evaluation scores were used for evaluation based on the control sample (0 points) and the glutathione sample (3 points), and the test was performed with n=3.
The sample solutions that became acidic after dissolution of the samples were adjusted to pH 6.8 to 7.2 with NaOH before use. Sensory evaluation scores were used for evaluation based on the control sample (0 points) and the glutathione sample (3 points), and the test was performed with n=5.
Sample solutions that became acidic after dissolution of the samples were adjusted to pH 6.8 to 7.2 with NaOH before use. Sensory evaluation scores were used for evaluation based on the control sample (0 points) and the glutathione sample (3 points), and the test was performed with n=12.

human calcium receptor = biological target: T2, human calcium receptor (Homo sapiens, UniProt P41180); test: Calcium receptor activation activity: Ca ion concentration-dependent Cl ionic current in Xenopus laevis oocyte expression system; type: cell-based; conditions: for calcium receptor activation activity (Ca ion concentration-dependent Cl response current): oocytes voltage-clamped at −70 mV
T2 construct: expressed in transfected cells; host or cells: Xenopus laevis oocytes microinjected with cRNA; gene amplified by PCR from human kidney cDNA (Clontech)
T2 sequence (P41180 20-1078): T1 sequence (P41180 20-1078)
Protocol: To evaluate calcium receptor activation activity, a Ca ion concentration-dependent Cl ionic current measuring method using a Xenopus laevis oocyte expression system was used. If each activator is added to Xenopus laevis oocytes expressing the calcium receptor, intracellular Ca ions increase. Then, the Ca ion concentration-dependent Cl channel opens, and the intracellular current value changes as an ionic current. By measuring the change in this intracellular current value, the presence or absence of calcium receptor activation activity can be determined.
Specifically, the abdomen of Xenopus laevis was opened, and an egg batch was taken out and treated with a 1% collagenase solution at 20° C. for 2 hours to obtain individual oocytes. Into the oocytes, 50 nl of 1 μg/μl receptor cRNA or 50 nl of sterilized water per oocyte was introduced by using a micro glass capillary, and the oocytes were cultured at 18° C. for 2 or 3 days. For the culture, a solution obtained by adding 2 mM pyruvic acid, 10 U/ml of penicillin, and 10 μg/ml of streptomycin to the solution in Example 2 was used. After the culture, a test solution was added to the oocytes containing either the cRNA or sterilized water. Electrophysiological measurement was performed by using an amplifier, Geneclamp500 (Axon), and recording software, AxoScope 9.0 (Axon). The oocytes were voltage-clamped at −70 mV by the double electrode voltage clamp method, and the intracellular current was measured via the Ca ion concentration-dependent Cl ion channel. The maximum value of the intracellular current was considered as the response current value.
Calcium receptor activation activity of L-amino acids was evaluated by using the method described in Example 13. That is, oocytes containing either cRNA of the calcium receptor or sterilized water were prepared, and voltage-clamped at −70 mV by the double electrode voltage clamp method. To the voltage-clamped oocytes, alanine (10 mM), arginine (10 mM), asparagine (10 mM), aspartic acid (10 mM), cysteine (10 mM), glutamine (10 mM), glutamic acid (10 mM), glycine (10 mM), histidine (10 mM), isoleucine (10 mM), leucine (10 mM), lysine (10 mM), methionine (10 mM), phenylalanine (10 mM), proline (10 mM), serine (10 mM), threonine (10 mM), tryptophan (10 mM), tyrosine (10 mM), valine (10 mM), ornithine (10 mM), taurine (10 mM), or hydroxyproline (10 mM) was added, and Ca ion concentration-dependent Cl response current was measured. […] As for the aforementioned amino acids, the activation activity was reported in Proc. Natl. Acad. Sci. USA, 2000 Apr. 25, 97(9):4814-9.
Calcium receptor activation activity of D-cysteine was evaluated by using the method described in Example 13. That is, oocytes containing either cRNA of the calcium receptor or sterilized water were prepared, and voltage-clamped at −70 mV by the double electrode voltage clamp method. To the voltage-clamped oocytes, D-cysteine (10 mM), L-cysteine (10 mM), D-tryptophan (10 mM), or L-tryptophan (10 mM) was added, and Ca ion concentration-dependent Cl response current was measured.
Calcium receptor activation activity of peptides was evaluated by using the method described in Example 13. That is, oocytes containing either cRNA of the calcium receptor or sterilized water were prepared, and voltage-clamped at −70 mV by the double electrode voltage clamp method.
Calcium receptor activation activity of peptides was evaluated in the same manner as that of Example 17. Each of the peptides shown in Table 2 was added to voltage-clamped oocytes at 1000 μM, 300 μM, 100 μM, 30 μM, 10 μM, 3 μM, 1 μM, 0.3 μM, and 0.1 μM, and Ca ion concentration-dependent Cl response current was measured.

[2] = Quantitative sensory evaluation test: kokumi-imparting activity of peptides combined with known calcium receptor activators or additives; type: in vivo, human; conditions: alone; for Intensity of kokumi: Aftertaste / Intensity of kokumi: First and middle taste: n=12, 0 control, 3 intense, 6 extremely intense
Protocol: The intensity of the kokumi-imparting activity of each peptide having confirmed calcium receptor activation activity and a known calcium receptor activator used in combination was measured by a quantitative sensory evaluation test, performed as follows: Samples of γ-Glu-Cys-Gly (glutathione) or γ-Glu-Val-Gly (0.0001 to 1 g/dl), or these samples combined with a calcium receptor activator such as calcium lactate, protamine or polylysine, or GABA (addition concentration: 0.0001 to 1 g/dl) were added to distilled water containing sodium glutamate (0.05 g/dl), inosine monophosphate (0.05 g/dl), and sodium chloride (0.5 g/dl), and the intensity of the kokumi-imparting activity was measured. Sample solutions that became acidic after dissolution of the samples were adjusted to pH 6.8 to 7.2 with NaOH before use. Sensory evaluation scores were used to evaluate as follows: 0 points for the control sample, 3 points for intense activity (as intensity of 0.05 g/dl γ-Glu-Cys-Gly and 0.005 g/dl γ-Glu-Val-Gly), and 6 points for extremely intense activity (as twice intensity of 0.05 g/dl γ-Glu-Cys-Gly and 0.005 g/dl γ-Glu-Val-Gly), and the test was performed with n=12.

## CC(C)(S)[C@H](NC(=O)CC[C@H](N)C(=O)O)C(=O)NCC(=O)O [γ-Glu-Pen-Gly]
Human CaSR
  EC50: 0.159 to 0.233 µM

## [γGlu]-Ala
[1]; Table 5, 0.1 g/dl, n=3
  Intensity of kokumi: Aftertaste: 0.2 points
  Intensity of kokumi: First and middle taste: 0.5 points
Human calcium receptor; 50 μM peptide
  calcium receptor activation activity (Ca ion concentration-dependent Cl response current): definitive calcium receptor activation activity

## C[C@H](OC(=O)[C@@H](NC(=O)CC[C@H](N)C(=O)O)C(C)(C)C)C(=O)O [γ-Glu-t-Leu-LacA]
Human CaSR
  EC50: 0.038 µM

## [γGlu]-Val
[1]; Table 5, 0.1 g/dl, n=3
  Intensity of kokumi: Aftertaste: 1.0 points
  Intensity of kokumi: First and middle taste: 3.0 points
[1]; Table 6, 0.1 g/dl, n=5
  Intensity of kokumi: Aftertaste: 1.0 points
  Intensity of kokumi: First and middle taste: 3.0 points
Human calcium receptor; 50 μM peptide
  calcium receptor activation activity (Ca ion concentration-dependent Cl response current): definitive calcium receptor activation activity

## [γGlu]-Cys
[1]; Table 6, 0.1 g/dl, n=5
  Intensity of kokumi: Aftertaste: 2.0 points
  Intensity of kokumi: First and middle taste: 2.0 points
Human calcium receptor; 50 μM peptide
  calcium receptor activation activity (Ca ion concentration-dependent Cl response current): definitive calcium receptor activation activity

## N[C@@H](CCC(=O)NC1(C(=O)NCC(=O)O)CCCC1)C(=O)O [γ-Glu-Cle-Gly]
Human CaSR
  EC50: 0.5 to 1.5 µM

## Polylysine
[2]; 0.001 g/dl
  Evaluation remarks: Thickness
  Intensity of kokumi: Aftertaste: 0.5 points
  Intensity of kokumi: First and middle taste: 0.5 points

## [γGlu]-Met
[1]; Table 5, 0.1 g/dl, n=3
  Intensity of kokumi: Aftertaste: 0.4 points
  Intensity of kokumi: First and middle taste: 1.5 points
Human calcium receptor; 500 μM peptide
  calcium receptor activation activity (Ca ion concentration-dependent Cl response current): definitive calcium receptor activation activity

## CC(C)(C)[C@H](NC(=O)CC[C@H](N)C(=O)O)C(=O)NCC(=O)O [γ-Glu-t-Leu-Gly] (γGlu-[Tle]-Gly-OH)
Human CaSR
  EC50: 0.043 to 0.077 µM

## CC[C@H](NC(=O)CC[C@H](N)C(=O)O)C(=O)O[C@@H](C)C(=O)O [γ-Glu-Abu-LacA]
Human CaSR
  EC50: 0.102 µM

## [γGlu]-[Abu]-Gly
[1]; Table 7, 0.01 g/dl, n=12
  Intensity of kokumi: Aftertaste: 2.0 points
  Intensity of kokumi: First and middle taste: 3.0 points
Human calcium receptor; added at 1000, 300, 100, 30, 10, 3, 1, 0.3 and 0.1 μM
  Activity (lowest concentration for which current was detected): 3 µM

## CC(O)C(=O)[O-].CC(O)C(=O)[O-].[Ca+2] (centres unmarked) [Calcium lactate]
[2]; 0.25 g/dl
  Evaluation remarks: Thickness
  Intensity of kokumi: Aftertaste: 0.5 points
  Intensity of kokumi: First and middle taste: 0.5 points

## CC[C@H](NC(=O)CC[C@H](N)C(=O)O)C(=O)OCC(=O)O [γ-Glu-Abu-GlyA]
Human CaSR
  EC50: 0.065 to 0.079 µM

## NCCCC(=O)O [GABA]
[2]; 0.025 g/dl
  Evaluation remarks: Thickness
  Intensity of kokumi: Aftertaste: 0.5 points
  Intensity of kokumi: First and middle taste: 0.5 points

## CC(C)(NC(=O)CC[C@H](N)C(=O)O)C(=O)NCC(=O)O [γ-Glu-Aib-Gly]
Human CaSR
  EC50: 0.349 to 1.17 µM

## CC(C)[C@H](NC(=O)CC[C@H](N)C(=O)O)C(=O)OCC(=O)O [γ-Glu-Val-GlyA]
Human CaSR
  EC50: 0.14 µM

## CC(C)[C@H](NC(=O)CC[C@H](N)C(=O)O)C(=O)O[C@@H](C)C(=O)O [γ-Glu-Val-LacA]
Human CaSR
  EC50: 0.057 µM

## CC(C)(C)[C@H](NC(=O)CC[C@H](N)C(=O)O)C(=O)OCC(=O)O [γ-Glu-t-Leu-GlyA]
Human CaSR
  EC50: 0.05 µM

## Protamine
[2]; 0.005 g/dl
  Intensity of kokumi: Aftertaste: 1.0 points
  Intensity of kokumi: First and middle taste: 1.5 points

Source: US8420144B2, “Kokumi-imparting agent, method of using, and compositions containing same” (Ajinomoto Co., Inc., priority 2005, dated 2013)
